We go through six molecules from patent US9849083B2, “Sublingual administration of statins” (LondonPharma Ltd., priority 2011, dated 2017).

Where a name gives a salt, the structure may show the parent alone. Read-outs that look alike come from different tables or passages of the source.

Data set [1] is described as follows: physchem. The note with it: aqueous with cosolvent or surfactant or cyclodextrin.
A short description of data set [2]: Safety and tolerability in phase 1 trial of sublingual statin sprays. The data set is classed as in vivo, human. As to conditions: all mild; simvastatin AE after 40 mg; fluvastatin with both doses. The method, then:
The secondary objectives of this study were to: • establish the safety, tolerability, local tolerance and taste acceptance of the study medications
Safety was evaluated by adverse event (AE) monitoring, evaluation of any medically significant changes, based on physical examination findings, vital signs, and electrocardiograms (ECGs) assessments, clinical laboratory testing, local tolerance and taste acceptance.
Safety data was summarised by descriptive methods; continuous variables by summary statistics and categorical data by absolute and relative frequencies.

A short description of data set [3]: clinical. The note with it: male, human, in vivo; for Tmax: Tmax (median).
For data set [4] the following is noted: human, in vivo; for Tmax (median): male.
The nature of data set [5]: Phase 1 pharmacokinetic study of sublingual statin sprays in healthy male subjects. As to conditions: for AUC(0-inf) / AUC(0-t) / Cmax / Tmax: male, human, plasma; for Tmax: Tmax (median); for Tmax / Tmax (median): sublingual spray, healthy male subjects, simvastatin acid measured after simvastatin spray.
The nature of data set [6]: Solubility of the statin in formulation carriers. As to conditions: aqueous-based formulation, water.
Data set [7] in a line: Chemical stability / compatibility of the statin in formulations. The data set is classed as physicochemical.

Usually solubility stands for how much of the substance goes into solution per volume. Read a high solubility as much dissolved substance. Usually AUC(0-inf) stands for total exposure, with the tail of the curve extrapolated. A higher AUC(0-inf) goes with high exposure. One may read the AUC(0-t) as exposure summed from dosing to a finite time, without extrapolation to infinity. Higher therefore signals high exposure. The Cmax is the highest concentration seen after dosing. Usually half-life stands for the time in which the quantity being followed falls by half. A word on the Tmax: it is the time from dosing to the highest level. As a reminder, the Vd/F is the volume of distribution divided by bioavailability.

For the molecule `CC(C)n1c(/C=C/C(O)CC(O)CC(=O)O)c(-c2ccc(F)cc2)c2ccccc21` (centres unmarked) [Fluvastatin (sodium salt), fluvastatin sodium], the solubility in data set [1] was not below 25 mg/mL.

As for `CC(C)n1c(/C=C/C(O)CC(O)CC(=O)O)c(-c2ccc(F)cc2)c2ccccc21` (centres unmarked) [Fluvastatin, fluvastatin], the “Treatment-emergent AEs reported” value in data set [2] is 5 related and 2 unrelated. In data set [3] (10 mg), this molecule gave an AUC(0-inf) of 37.2 ng·h/mL, an AUC(0-t) of 36.3 ng·h/mL, a Cmax of 34.2 ng/mL and a half-life of 70.8 min. The Tmax in data set [3] (10 mg) was approximately 0.5 h. In data set [3] (25 mg), the area under the curve AUC(0-inf) came to 91.7 ng·h/mL, the area under the curve AUC(0-t) is 89.9 ng·h/mL, the highest level (Cmax) was 88 ng/mL and the half-life was 84 min. For the same molecule, the time of peak concentration (Tmax) in data set [3] (25 mg) was approximately 0.5 h. Besides, in data set [4] (10 mg), the “CL/F (mean)” value was 376.22 L/h and the “Tmax (median)” value is 33.6 min. Besides, in data set [4] (25 mg), the “CL/F (mean)” value came out at 363.21 L/h and the “Tmax (median)” value came to 34.2 min.

Turning to `CC[C@H](C)C(=O)O[C@H]1C[C@H](O)C=C2C=C[C@H](C)[C@H](CC[C@@H](O)C[C@@H](O)CC(=O)O)[C@H]21` [Pravastatin, pravastatin], the “Treatment-emergent AEs reported” value in data set [2] is recorded as “none”. Moreover, the half-life was 94.8 min in data set [3] (20 mg) and 79.2 min in data set [3] (40 mg). The total exposure AUC(0-inf) in data set [5] (20 mg) amounted to 31.2 ng·h/mL; in data set [5] (40 mg), 80.6 ng·h/mL. For the same molecule, the area under the curve AUC(0-t) in data set [5] (20 mg) worked out at 30 ng·h/mL; in data set [5] (40 mg), 78.8 ng·h/mL. For the same molecule, the maximum concentration (Cmax) in data set [5] (20 mg) was 12.3 ng/mL; in data set [5] (40 mg), 44.5 ng/mL. Moreover, the Tmax was 1.3 h in data set [5] (20 mg, 20 mg) and 1.3 h in data set [5] (40 mg, 40 mg). In addition, the “Tmax (median)” value in data set [5] (20 mg) is 1.33 h; in data set [5] (40 mg), 1.29 h. Further, the “CL/F (mean)” value in data set [4] (20 mg) amounted to 685.48 L/h; in data set [4] (40 mg) it was 820.32 L/h.

In data set [3] (20 mg), `CCC(C)(C)C(=O)O[C@H]1C[C@@H](C)C=C2C=C[C@H](C)[C@H](CC[C@@H](O)C[C@@H](O)CC(=O)O)[C@H]21` [Simvastatin Acid, simvastatin acid] registered an area under the curve AUC(0-inf) of 37.7 ng·h/mL, an AUC(0-t) of 21.3 ng·h/mL, a peak concentration (Cmax) of 6.1 ng/mL and a Vd/F of 3960 L. Also, in data set [3] (20 mg), the half-life was 344 min and the time of peak concentration (Tmax) was found to be 2.19 h. In data set [3] (40 mg), the AUC(0-inf) stood at 47.6 ng·h/mL, the exposure AUC(0-t) is 32.5 ng·h/mL, the concentration peaked (Cmax) at 9.88 ng/mL and the Vd/F worked out at 4760 L. In data set [3] (40 mg), the half-life was 219 min and the Tmax turned out to be 3.88 h. In addition, the “CL/F (mean)” value in data set [4] (20 mg) is on record as 609.03 L/h. In data set [4] (40 mg), the “CL/F (mean)” value is given as 921.93 L/h.

As to `CCC(C)(C)C(=O)O[C@H]1C[C@@H](C)C=C2C=C[C@H](C)[C@H](CC[C@@H]3C[C@@H](O)CC(=O)O3)[C@H]21` [Simvastatin, simvastatin], in data set [2], the “Treatment-emergent AEs reported” value is recorded as “one”. The Vd/F in data set [3] (20 mg) turned out to be 1980 L; in data set [3] (40 mg), 2070 L. Moreover, the half-life in data set [3] (20 mg) is 108 min; in data set [3] (40 mg), 114 min. The Tmax in data set [5] (20 mg, 20 mg) worked out at 1.88 h; in data set [5] (40 mg, 40 mg), 1.88 h. Moreover, the “CL/F (mean)” value in data set [4] (20 mg) came to 744.33 L/h; in data set [4] (40 mg), 764.67 L/h.

Take `CC[C@H](C)C(=O)O[C@H]1C[C@H](O)C=C2C=C[C@H](C)[C@H](CC[C@@H](O)C[C@@H](O)CC(=O)O)[C@H]21` [pravastatin sodium]: the solubility in data set [6] was not below 150 mg/mL. In data set [7], the Reaction with ethanol result was “react with ethanol”.
